# In patent publication US20230102554A1 (GB002, INC., priority 2019, published 2023):
# How the values were obtained:
# [1] = biological target: T1, Human PDGFRβ, cytoplasmic domain (GST-PDGFRβ) (Homo sapiens, UniProt P09619); assay: Human PDGFRβ biochemical inhibition assay (off-chip Mobility Shift Assay)
# T1 construct: made in house
# In short: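 GST-tagged cytoplasmic domain (aa 557-1106) from baculovirus was incubated 1 h at room temperature with compound, CSKtide, ATP at Km and Mg²⁺ in HEPES buffer, pH 7.5. Phosphorylated and unphosphorylated peptide were separated by off-chip mobility shift, and the product ratio P/(P+S) gave percent inhibition.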
# [2] = biological target: T2, Human PDGFRα, cytoplasmic domain (GST-PDGFRα) (Homo sapiens, UniProt P16234); assay: Human PDGFRα biochemical inhibition assay (off-chip Mobility Shift Assay)
# T2 construct: made in house
# T2 sequence (P16234 550-1089 T674I): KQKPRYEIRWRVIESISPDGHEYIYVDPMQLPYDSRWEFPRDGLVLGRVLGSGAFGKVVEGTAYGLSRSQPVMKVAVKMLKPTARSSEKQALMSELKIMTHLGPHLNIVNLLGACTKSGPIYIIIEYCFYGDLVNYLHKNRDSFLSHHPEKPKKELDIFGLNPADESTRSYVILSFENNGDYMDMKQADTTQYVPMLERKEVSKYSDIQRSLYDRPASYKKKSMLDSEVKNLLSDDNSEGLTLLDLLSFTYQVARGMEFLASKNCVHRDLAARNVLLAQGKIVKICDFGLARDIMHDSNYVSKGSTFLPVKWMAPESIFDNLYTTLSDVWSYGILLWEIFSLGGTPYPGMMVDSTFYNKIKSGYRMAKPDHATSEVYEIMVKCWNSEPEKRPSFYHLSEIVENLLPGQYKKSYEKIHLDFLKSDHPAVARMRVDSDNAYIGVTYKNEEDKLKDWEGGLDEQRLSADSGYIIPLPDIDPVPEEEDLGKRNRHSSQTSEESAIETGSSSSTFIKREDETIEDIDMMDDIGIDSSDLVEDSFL
# T1 sequence (P09619 with tags, fused parts or gaps): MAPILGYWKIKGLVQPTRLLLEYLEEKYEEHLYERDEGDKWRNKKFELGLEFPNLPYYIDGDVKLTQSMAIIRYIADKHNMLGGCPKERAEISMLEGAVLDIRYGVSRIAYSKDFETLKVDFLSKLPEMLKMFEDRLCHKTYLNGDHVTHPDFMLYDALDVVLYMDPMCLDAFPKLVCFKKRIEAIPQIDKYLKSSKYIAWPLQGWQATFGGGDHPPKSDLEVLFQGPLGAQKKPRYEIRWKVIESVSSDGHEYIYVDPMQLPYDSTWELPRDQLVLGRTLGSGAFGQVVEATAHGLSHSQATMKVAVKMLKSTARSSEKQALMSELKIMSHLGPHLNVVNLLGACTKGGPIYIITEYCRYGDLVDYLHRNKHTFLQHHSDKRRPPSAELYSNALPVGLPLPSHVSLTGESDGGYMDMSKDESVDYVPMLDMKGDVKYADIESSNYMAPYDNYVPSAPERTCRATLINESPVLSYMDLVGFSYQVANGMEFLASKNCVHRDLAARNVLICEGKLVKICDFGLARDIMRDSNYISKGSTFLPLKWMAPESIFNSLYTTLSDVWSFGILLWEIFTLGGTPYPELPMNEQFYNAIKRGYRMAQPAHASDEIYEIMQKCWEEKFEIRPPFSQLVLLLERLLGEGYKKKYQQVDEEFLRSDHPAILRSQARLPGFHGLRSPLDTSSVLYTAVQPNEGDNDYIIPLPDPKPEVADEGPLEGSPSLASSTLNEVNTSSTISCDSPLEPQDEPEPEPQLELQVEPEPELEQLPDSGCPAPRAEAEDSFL
IC50 [1] [nM],IC50 [2] [nM],SMILES
< 300,< 300,"CCn1cc2ncc(N[C@@H](C)c3cccc(NC(=O)c4ccc(CN5CCN(C6CC6)CC5)c(C)c4)c3)nc2n1 [Compound 462, (S)-4-((4-cyclopropylpiperazin-1-yl)methyl)-N-(3-(1-((2-ethyl-2H-pyrazolo[3,4-b]pyrazin-6-yl)amino)ethyl)phenyl)-3-methylbenzamide]"
< 300,< 300,"Cc1n[nH]c2ncc(N[C@@H](C)c3cccc(NC(=O)c4ccc(C(F)F)s4)c3)nc12 [Compound 539, (S)-5-(difluoromethyl)-N-(3-(1-((3-methyl-1H-pyrazolo[3,4-b]pyrazin-5-yl)amino)ethyl)phenyl)thiophene-2-carboxamide]"
< 300,< 300,"CSc1ccc(C(=O)Nc2cccc([C@H](C)Nc3cnc4cnn(C)c4n3)c2)cn1 [Compound 218, (S)-N-(3-(1-((1-methyl-1H-pyrazolo[3,4-b]pyrazin-6-yl)amino)ethyl)phenyl)-6-(methylthio)nicotinamide]"
< 300,< 300,"COc1ccc(C(=O)Nc2cccc([C@H](C)Nc3cnc4cnn(C)c4n3)c2)cc1OC [Compound 203, (S)-3,4-dimethoxy-N-(3-(1-((1-methyl-1H-pyrazolo[3,4-b]pyrazin-6-yl)amino)ethyl)phenyl)benzamide]"
< 300,< 300,"CCn1cc2ncc(N[C@@H](C)c3cccc(NC(=O)c4cnn(C(C)C)c4)c3)nc2n1 [Compound 301, (S)-N-(3-(1-((2-ethyl-2H-pyrazolo[3,4-b]pyrazin-6-yl)amino)ethyl)phenyl)-1-isopropyl-1H-pyrazole-4-carboxamide]"
300 to 1000,< 300,"CCn1cc2ncc(N[C@@H](C)c3cccc(NC(=O)c4cncc(OC)c4)c3)nc2n1 [Compound 279, (S)-N-(3-(1-((2-ethyl-2H-pyrazolo[3,4-b]pyrazin-6-yl)amino)ethyl)phenyl)-5-methoxynicotinamide]"
< 300,< 300,"Cc1cncc(C(=O)Nc2cccc([C@H](C)Nc3cnc4[nH]ncc4n3)c2)c1 [Compound 529, (S)-N-(3-(1-((1H-pyrazolo[3,4-b]pyrazin-5-yl)amino)ethyl)phenyl)-5-methylnicotinamide]"
< 300,< 300,"C[C@H](Nc1cnc2cn[nH]c2n1)c1cccc(NC(=O)c2cncc(C3CC3)c2)c1 [Compound 93, (S)-N-(3-(1-((1H-pyrazolo[3,4-b]pyrazin-6-yl)amino)ethyl)phenyl)-5-cyclopropylnicotinamide]"
300 to 1000,< 300,"CCn1cc2ncc(N[C@@H](C)c3cccc(NC(=O)c4ccc(N5CCCC5)nc4)c3)nc2n1 [Compound 375, (S)-N-(3-(1-((2-ethyl-2H-pyrazolo[3,4-b]pyrazin-6-yl)amino)ethyl)phenyl)-6-(pyrrolidin-1-yl)nicotinamide]"
< 300,< 300,"CC(C)n1cc(C(=O)Nc2cccc([C@H](C)Nc3cnc4[nH]cc(-c5cnn(C)c5)c4n3)c2)cn1 [Compound 588, (S)-1-isopropyl-N-(3-(1-((7-(1-methyl-1H-pyrazol-4-yl)-5H-pyrrolo[2,3-b]pyrazin-2-yl)amino)ethyl)phenyl)-1H-pyrazole-4-carboxamide]"
< 300,< 300,"Cc1cc(C(=O)Nc2cccc([C@H](C)Nc3cnc4cnn(C)c4n3)c2)cnc1NC(C)C [Compound 198, (S)-6-(isopropylamino)-5-methyl-N-(3-(1-((1-methyl-1H-pyrazolo[3,4-b]pyrazin-6-yl)amino)ethyl)phenyl) nicotinamide]"
< 300,< 300,"CCn1cc2ncc(N[C@@H](C)c3cccc(NC(=O)Nc4cc(C)ccn4)c3)nc2n1 [Compound 735, (S)-1-(3-(1-((2-ethyl-2H-pyrazolo[3,4-b]pyrazin-6-yl)amino)ethyl)phenyl)-3-(4-methylpyridin-2-yl)urea]"

# Further lines, the compound ahead of its results:
SMILES,IC50 [1] [nM],IC50 [2] [nM]
"Cc1cc(C(=O)Nc2cccc([C@H](C)Nc3cnc4cnn(C)c4n3)c2)ccc1C(=O)OCCN1CCCC1 [Compound 268, 2-(pyrrolidin-1-yl)ethyl (S)-2-methyl-4-((3-(1-((1-methyl-1H-pyrazolo[3,4-b]pyrazin-6-yl)amino)ethyl)phenyl)carbamoyl) benzoate]",< 300,< 300
"CCn1cc2ncc(N[C@@H](C)c3cccc(NC(=O)c4ccc(C(F)(F)F)nc4)c3)nc2n1 [Compound 284, (S)-N-(3-(1-((2-ethyl-2H-pyrazolo[3,4-b]pyrazin-6-yl)amino)ethyl)phenyl)-6-(trifluoromethyl)nicotinamide]",300 to 1000,300 to 1000
"CCn1cc2ncc(N[C@@H](C)c3cccc(NC(=O)Cc4ccc(F)c(F)c4)c3)nc2n1 [Compound 648, (S)-2-(3,4-difluorophenyl)-N-(3-(1-((2-ethyl-2H-pyrazolo[3,4-b]pyrazin-6-yl)amino)ethyl)phenyl)acetamide]",< 300,< 300
"CCn1cc2ncc(N[C@@H](C)c3cccc(NC(=O)c4ccc(C(F)(F)F)c(Cl)c4)c3)nc2n1 [Compound 438, (S)-3-chloro-N-(3-(1-((2-ethyl-2H-pyrazolo[3,4-b]pyrazin-6-yl)amino)ethyl)phenyl)-4-(trifluoromethyl)benzamide]",< 300,< 300
"CC(=O)Oc1cccc(C(=O)Nc2cccc([C@H](C)Nc3cnc4cnn(C)c4n3)c2)c1 [Compound 215, (S)-3-((3-(1-((1-methyl-1H-pyrazolo[3,4-b]pyrazin-6-yl)amino)ethyl)phenyl)carbamoyl) phenyl acetate]",< 300,< 300
"CCn1cc2ncc(N[C@@H](C)c3cc(NC(=O)c4ccc(CN5CCCC5)c(C)c4)ccc3C)nc2n1 [Compound 522, (S)-N-(3-(1-((2-ethyl-2H-pyrazolo[3,4-b]pyrazin-6-yl)amino)ethyl)-4-methylphenyl)-3-methyl-4-(pyrrolidin-1-ylmethyl)benzamide]",< 300,< 300
"Cc1cncc(C(=O)Nc2cccc([C@H](C)Nc3cnn4cc(-c5cnn(C)c5)ccc34)c2)c1 [Compound 746, (S)-5-methyl-N-(3-(1-((6-(1-methyl-1H-pyrazol-4-yl)pyrazolo[1,5-a]pyridin-3-yl)amino)ethyl)phenyl) nicotinamide]",< 300,< 300
"CCOc1ccc(C(=O)Nc2cccc([C@H](C)Nc3cnc4cn(CC)nc4n3)c2)cn1 [Compound 286, (S)-6-ethoxy-N-(3-(1-((2-ethyl-2H-pyrazolo[3,4-b]pyrazin-6-yl)amino)ethyl)phenyl) nicotinamide]",300 to 1000,< 300
"Cc1cncc(C(=O)Nc2ccc(F)c([C@H](C)Nc3cnc4cn(CC5CNCCO5)nc4n3)c2)c1 (stereo partly drawn) [Compound 411, N-(4-fluoro-3-((1S)-1-((2-(morpholin-2-ylmethyl)-2H-pyrazolo[3,4-b]pyrazin-6-yl)amino)ethyl)phenyl)-5-methylnicotinamide]",< 300,< 300
"CCc1cc(C(=O)Nc2cccc([C@H](C)Nc3cnc4cn(CC)nc4n3)c2)ccc1CN1CC2(COC2)C1 [Compound 499, (S)-4-((2-oxa-6-azaspiro[3,3]heptan-6-yl)methyl)-3-ethyl-N-(3-(1-((2-ethyl-2H-pyrazolo[3,4-b]pyrazin-6-yl)amino)ethyl)phenyl)benzamide]",< 300,< 300
"Cc1cc(C(=O)Nc2cccc([C@H](C)Nc3cnc4cnn(C)c4n3)c2)ccc1C(=O)OCc1oc(=O)oc1C [Compound 267, (5-methyl-2-oxo-1,3-dioxol-4-yl)methyl (S)-2-methyl-4-((3-(1-((1-methyl-1H-pyrazolo[3,4-b]pyrazin-6-yl)amino)ethyl)phenyl)carbamoyl)benzoate]",< 300,< 300
"C[C@H](Nc1cnc2cnn(C)c2n1)c1cccc(NC(=O)c2cncc(C(C)(C)O)c2)c1 [Compound 107, (S)-5-(2-hydroxypropan-2-yl)-N-(3-(1-((1-methyl-1H-pyrazolo[3,4-b]pyrazin-6-yl)amino)ethyl)phenyl) nicotinamide]",< 300,< 300
"CCn1cc2ncc(N[C@@H](C)c3cccc(NC(=O)Cc4cccc(Cl)c4)c3)nc2n1 [Compound 621, (S)-2-(3-chlorophenyl)-N-(3-(1-((2-ethyl-2H-pyrazolo[3,4-b]pyrazin-6-yl)amino)ethyl)phenyl)acetamide]",< 300,< 300
"CCn1cc2ncc(N[C@@H](C)c3cc(NC(=O)c4cncc(C)c4)ccc3C)cc2n1 [Compound 501, (S)-N-(3-(1-((2-ethyl-2H-pyrazolo[4,3-b]pyridin-6-yl)amino)ethyl)-4-methylphenyl)-5-methylnicotinamide]",< 300,< 300
"Cc1cc(C(=O)Nc2cccc([C@H](C)Nc3cnc4cnn(C)c4n3)c2)ccc1CN1CCN(C)CC1 [Compound 208, (S)-3-methyl-N-(3-(1-((1-methyl-1H-pyrazolo[3,4-b]pyrazin-6-yl)amino)ethyl)phenyl)-4-((4-methylpiperazin-1-yl)methyl)benzamide]",< 300,< 300
"C[C@H](Nc1cnc2[nH]ccc2n1)c1cc(NC(=O)c2cnn(C3CCC3)c2)ccc1F [Compound 597, (S)-N-(3-(1-((5H-pyrrolo[2,3-b]pyrazin-2-yl)amino)ethyl)-4-fluorophenyl)-1-cyclobutyl-1H-pyrazole-4-carboxamide]",< 300,< 300
"C[C@H](Nc1cnc2cnn(C)c2n1)c1cccc(NC(=O)c2cncc(Cl)c2)c1 [Compound 109, (S)-5-chloro-N-(3-(1-((1-methyl-1H-pyrazolo[3,4-b]pyrazin-6-yl)amino)ethyl)phenyl)nicotinamide]",< 300,< 300
"CCn1cc2ncc(N[C@@H](C)c3cc(NC(=O)Cc4ccc(C5CCC5)nc4)ccc3F)nc2n1 [Compound 671, (S)-2-(6-cyclobutylpyridin-3-yl)-N-(3-(1-((2-ethyl-2H-pyrazolo[3,4-b]pyrazin-6-yl)amino)ethyl)-4-fluorophenyl) acetamide]",≥ 1000,< 300
